Data: US20220362215A1, “THERAPEUTIC OR PROPHYLACTIC AGENT FOR CHRONIC KIDNEY DISEASE CONTAINING PYRAZOLE-AMIDE COMPOUND” (JAPAN TOBACCO INC., priority 2018, published 2022)

How the values were obtained:
[1] = tested on: saline-loaded SDT-fatty rats; 5/6 nephrectomized rats; assay: disease model animals exhibiting CKD-like renal disorder and decreased renal function (saline-loaded SDT-fatty rat model; 5/6 nephrectomized rat model); assay type: in vivo; conditions: oral administration in feed
Protocol: Experimental Example 1: Suppressive effects of compound A on urinary protein excretion and renal disorder by oral administration of monohydrate of compound A in saline-loaded SDT-fatty rat model
In saline-loaded Spontaneously Diabetic Torii fatty (SDI-fatty) rats, suppressive effects of compound A on urinary protein excretion and renal disorder were evaluated. The evaluation was performed by reference to non-patent document 1. As the experiment animal, 6-week-old male SDI-fatty rats (CLEA Japan, Inc.) were used. A normal powder feed (CRF-1 powder, Oriental Yeast. Co., ltd.) containing 0.005 w/w % of a monohydrate of compound A as a free form of compound A was prepared. […]
For urine, after measuring the urine volume, the protein concentration in the urine was measured by the absorbance at wavelength 590 nm using a total protein quantification kit (TONEIN-TP, Otsuka Pharmaceutical Co., Ltd.). Amount of the urinary protein excretion (mg/6 hours) was calculated from the urine volume and protein concentration. […]
The mean and standard deviation of urinary protein excretion for each group were calculated, and the results thereof are shown in FIG. 1. […]
In 5/6 nephrectomized rats, suppressive effects of compound A on urinary protein excretion and renal disorder were evaluated. […]

[2] = tested on: pyruvate dehydrogenase kinase (PDHK); conditions: as described in patent document 1 (WO 2014/142290); cited from earlier work

CC(C)(O)CCOc1cc(-c2cnn(C(C)(C)C(N)=O)c2)c2c(c1)[C@@](O)(C(F)(F)F)c1ccccc1-2 [compound A, 2-{4-[(9R)-9-hydroxy-2-(3-hydroxy-3-methylbutyloxy)-9-(trifluoromethyl)-9H-fluoren-4-yl]-1H-pyrazol-1-yl}-2-methylpropanamide]
severity of the disease [1]: significantly reduces the severity of the disease
pyruvate dehydrogenase kinase (PDHK) inhibitory activity [2]: inhibitory activity
